# In PMC8312882, “STING Ligand-Mediated Priming of Functional CD8^+ T Cells Specific for HIV-1-Protective Epitopes from Naive T Cells” (Journal of Virology, 2021):
# Test system: naive T cells in PBMCs of HIV-1-seronegative individuals
# Test: In vitro priming of epitope-specific CD8+ T cells from naive T cells (accelerated dendritic cell coculture, tetramer staining)
# Assay type: cell-based, human
# Description: Naive CD8^+ T-cell precursors specific for HLA-B*52:01-restricted, HLA-A*24:02-restricted, or HLA-C*12:02-restricted ones were primed in vitro by using the accelerated dendritic cell coculture protocol ([23], [24], [56], [57]). On day 0, frozen-thawed PBMCs of HIV-1-seronegative individuals having the HLA-B*52:01-C*12:02 haplotype or HLA-A*24:02 were suspended at 5 × 10^6 cells/well in 24-well tissue culture plates containing AIM-V medium (Invitrogen) supplemented with Flt3L (50 ng/ml; R&D Systems). AIM-V medium supplemented with a 10 μM concentration of each peptide and STING ligand 3′3′-cGAMP (10 μg/ml; InvivoGen) was added on day 1, and then FCS was further added to 10% by volume per well on day 2. On day 10, the cells were collected and then stained with epitope-specific tetramers.
# HLA-B*52:01-RI8, -MI8, -SI8, or -WV8 peptide tetrameric complexes (tetramers) and HLA-A*24:02-RF10, HLA-C*12:02-IY11, -MY9, or -RL9 complexes were generated as previously described ([58]). CD8^+ T cells specific for a given epitope were stained with phycoerythrin (PE)-conjugated epitope-specific tetramers at 37°C for 30 min. The cells were then washed twice with RPMI 1640 medium containing 5% FCS (R5), followed by staining with allophycocyanin (APC)-conjugated anti-CD8 MAb (Dako, Denmark) and 7-aminoactinomycin D (7-AAD; BD Pharmingen) at 4°C for 30 min. Finally, the cells were washed twice with R5 and then analyzed by using a FACS Canto II. Primed T cells unstained with tetramer were used as a negative control to determine gating of the tetramer^+ population. The tetramer^+ population was determined based on the gating of the negative control ([…] of tetramer^+ cells).
# [1] = HIV-1-uninfected individuals having HLA-B*52:01-C*12:02 haplotype
structure (smiles),measurement,setting,value
Nc1nc2c(ncn2[C@@H]2O[C@@H]3COP(=O)(O)O[C@H]4[C@@H](O)[C@H](n5cnc6c(N)ncnc65)O[C@@H]4COP(=O)(O)O[C@H]3[C@H]2O)c(=O)[nH]1 [3′3′-cGAMP],priming of CD8+ T cells specific for HLA-B*52:01-restricted epitopes from naive T cells,[1],effectively primed CD8^+ T cells specific for 3 of 4 HLA-B*52:01-restricted epitopes
same,priming of CD8+ T cells specific for HLA-C*12:02-restricted epitopes from naive T cells,[1],failed to prime those specific for all 3 HLA-C*12:02-restricted epitopes
same,mean frequency of NefRF10-specific T cells ± 2 SD,"stimulated with 3′3′-cGAMP (10 μg/ml) and NefRF10 peptide (10 μM) after Flt3 ligand 24 h, PBMCs from 7 HIV-1-seronegative HLA-A*24:02+ individuals, HLA-A*24:02-NefRF10 tetramer, 10-day culture, SD",0.206% ± 0.186%
